According to US20070128217A1 (priority 2003, published 2007):

Columns and labels:
[1] = test system: antibodies in sera from SARS patients (sera 1a, 1b, 2, 6, 37, 62, London, SARS-yellow, SARS-green); type: binding, human; set-up: Binding of serum 6 to linear peptides of protein X1 of SARS-CoV Urbani / Binding of serum 37 to linear peptides of protein X1 of SARS-CoV Urbani / Binding of serum 6 to looped/cyclic peptide (PEPSCAN-ELISA) / Binding of serum 37 to looped/cyclic peptide (PEPSCAN-ELISA) / Binding of serum 37 to looped/cyclic peptides of protein X1 of SARS-CoV Urbani / Binding of serum 6 to linear peptides of protein X2 / Binding of serum 37 to linear peptides of protein X2 / Binding of serum 37 to looped/cyclic peptides of protein X2 of SARS-CoV Urbani / Binding of serum 6 to linear peptides of protein M of SARS-CoV Urbani / Binding of serum 37 to linear peptides of protein M of SARS-CoV Urbani / Binding of serum 6 to looped/cyclic peptides of protein M of SARS-CoV Urbani / Binding of serum 37 to looped/cyclic peptides of protein M of SARS-CoV Urbani / Binding of serum 6 to linear peptides of protein X3 of SARS-CoV Urbani / Binding of serum 37 to linear peptides of protein X3 of SARS-CoV Urbani / Binding of serum 37 to looped/cyclic peptides of protein X3 of SARS-CoV Urbani / Binding of serum 6 to linear peptides of protein X4 of SARS-CoV Urbani / Binding of serum 37 to linear peptides of protein X4 of SARS-CoV Urbani / Binding of serum 37 to looped/cyclic peptides of protein X4 of SARS-CoV Urbani / Binding of serum 6 to linear peptides of protein X5 of SARS-CoV Urbani / Binding of serum 37 to linear peptides of protein X5 of SARS-CoV Urbani / Binding of serum 37 to looped/cyclic peptides of protein X5 of SARS-CoV Urbani / Binding of serum 6 to linear peptides of protein N of SARS-CoV Urbani / Binding of serum 37 to linear peptides of protein N of SARS-CoV Urbani / Binding of serum 6 to linear peptide (PEPSCAN-ELISA) / Binding of serum 1a to looped/cyclic peptides of protein N of SARS-CoV Urbani / Binding of serum 1b to looped/cyclic peptides of protein N of SARS-CoV Urbani / Binding of serum 2 to looped/cyclic peptides of protein N of SARS-CoV Urbani / Binding of serum 6 to looped/cyclic peptides of protein N of SARS-CoV Urbani / Binding of serum 37 to looped/cyclic peptides of protein N of SARS-CoV Urbani / Binding of serum 62 to looped/cyclic peptides of protein N of SARS-CoV Urbani / Binding of serum London to looped/cyclic peptides of protein N of SARS-CoV Urbani / Binding of serum SARS-green to looped/cyclic peptides of protein N of SARS-CoV Urbani: unit not given here
[2] = test system: control sera (pooled serum of ten healthy LUMC hospital workers; commercial negative donor pooled serum from the Dutch bloodbank); type: binding, human; set-up: Binding of Control serum LUMC to linear peptides / Binding of Control serum Blood-bank to linear peptides / Binding of Control serum LUMC to looped peptides / Binding of Control Serum Blood-Bank to Looped peptides / Binding of Control serum LUMC to linear peptides of the protein M of SARS-CoV Urbani / Binding of Control serum Blood-bank to linear peptides of the protein M of SARS-CoV Urbani / Binding of Control serum LUMC to looped peptides of the protein M of SARS-CoV Urbani / Binding of Control Serum Blood-Bank to Looped peptides of the protein M of SARS-CoV Urbani: unit not given here
[3] = test system: rabbit serum obtained by immunizing a rabbit with the SARS-CoV strain Frankfurt 1; type: binding; set-up: Binding of a rabbit serum to linear peptides / Binding of a rabbit serum to looped peptides / Rabbit serum linear peptides / Rabbit serum looped peptides / Binding of a rabbit serum to linear peptides of protein N of SARS-CoV Urbani (Rabbit serum linear peptides) / Binding of a rabbit serum to looped/cyclic peptides of protein N of SARS-CoV Urbani (Rabbit serum looped peptides): unit not given here

Sequence: VHGYFTEVYYQLEST
- Binding of serum 1a to linear peptides of protein X1 of SARS-CoV Urbani [1]: 0.7
- Binding of serum 1a to looped/cyclic peptides of protein X1 of SARS-CoV Urbani [1]: 0.5
- Binding of serum 1b to linear peptides of protein X1 of SARS-CoV Urbani [1]: 0.5
- Binding of serum 1b to looped/cyclic peptides of protein X1 of SARS-CoV Urbani [1]: 0.4
- Binding of serum 2 to linear peptides of protein X1 of SARS-CoV Urbani [1]: 0.4
- Binding of serum 2 to looped/cyclic peptides of protein X1 of SARS-CoV Urbani [1]: 0.5
- Binding of serum 6 to linear peptides of protein X1 of SARS-CoV Urbani [1]: 0.4
- Binding of serum 6 to looped/cyclic peptides of protein X1 of SARS-CoV Urbani [1]: 0.3
- Binding of serum 37 to linear peptides of protein X1 of SARS-CoV Urbani [1]: 0.4
- Binding of serum 37 to looped/cyclic peptides of protein X1 of SARS-CoV Urbani [1]: 0.5
- Binding of serum 62 to linear peptides of protein X1 of SARS-CoV Urbani [1]: 0.3
- Binding of serum 62 to looped/cyclic peptides of protein X1 of SARS-CoV Urbani [1]: 0.6
- Binding of serum London to linear peptides of protein X1 of SARS-CoV Urbani [1]: 0.2
- Binding of serum London to looped/cyclic peptides of protein X1 of SARS-CoV Urbani [1]: 0.2
- Binding of serum SARS-green to linear peptides of protein X1 of SARS-CoV Urbani [1]: 0.1
- Binding of serum SARS-green to looped/cyclic peptides of protein X1 of SARS-CoV Urbani [1]: 0.3
- Binding of serum SARS-yellow to linear peptides of protein X1 of SARS-CoV Urbani [1]: 0.3
- Binding of serum SARS-yellow to looped/cyclic peptides of protein X1 of SARS-CoV Urbani [1]: 0.5
- Binding of Control Serum Blood-Bank to Looped peptides [2]: 0.5
- Binding of Control serum Blood-bank to linear peptides [2]: 0.4
- Binding of Control serum LUMC to linear peptides [2]: 0.5
- Binding of Control serum LUMC to looped peptides [2]: 0.7
- Binding of a rabbit serum to linear peptides [3]: 0.1
- Binding of a rabbit serum to looped peptides [3]: 0.6

Sequence: VILRIGTQVLKTMSL
- Binding of serum 1a to linear peptides of protein X2 [1]: 0.6
- Binding of serum 1a to looped/cyclic peptides of protein X2 of SARS-CoV Urbani [1]: 0.6
- Binding of serum 1b to linear peptides of protein X2 [1]: 0.5
- Binding of serum 1b to looped/cyclic peptides of protein X2 of SARS-CoV Urbani [1]: 0.6
- Binding of serum 2 to linear peptides of protein X2 [1]: 0.5
- Binding of serum 2 to looped/cyclic peptides of protein X2 of SARS-CoV Urbani [1]: 0.4
- Binding of serum 6 to linear peptides of protein X2 [1]: 0.5
- Binding of serum 6 to looped/cyclic peptides of protein X2 of SARS-CoV Urbani [1]: 0.5
- Binding of serum 37 to linear peptides of protein X2 [1]: 0.6
- Binding of serum 37 to looped/cyclic peptides of protein X2 of SARS-CoV Urbani [1]: 0.5
- Binding of serum 62 to linear peptides of protein X2 [1]: 0.6
- Binding of serum 62 to looped/cyclic peptides of protein X2 of SARS-CoV Urbani [1]: 0.7
- Binding of serum London to linear peptides of protein X2 [1]: 0.4
- Binding of serum London to looped/cyclic peptides of protein X2 of SARS-CoV Urbani [1]: 0.2
- Binding of serum SARS-green to linear peptides of protein X2 [1]: 0.4
- Binding of serum SARS-green to looped/cyclic peptides of protein X2 of SARS-CoV Urbani [1]: 0.3
- Binding of serum SARS-yellow to linear peptides of protein X2 [1]: 0.4
- Binding of serum SARS-yellow to looped/cyclic peptides of protein X2 of SARS-CoV Urbani [1]: 0.4
- Binding of Control Serum Blood-Bank to Looped peptides [2]: 0.7
- Binding of Control serum Blood-bank to linear peptides [2]: 0.8
- Binding of Control serum LUMC to linear peptides [2]: 0.5
- Binding of Control serum LUMC to looped peptides [2]: 0.7
- Binding of a rabbit serum to linear peptides [3]: 0.3
- Binding of a rabbit serum to looped peptides [3]: 0.5

Sequence: VLLKEPCPSGTYEGN
- Binding of serum 1a to linear peptides of protein X4 of SARS-CoV Urbani [1]: 0.8
- Binding of serum 1a to looped/cyclic peptides of protein X4 of SARS-CoV Urbani [1]: 0.8
- Binding of serum 1b to linear peptides of protein X4 of SARS-CoV Urbani [1]: 0.7
- Binding of serum 1b to looped/cyclic peptides of protein X4 of SARS-CoV Urbani [1]: 0.7
- Binding of serum 2 to linear peptides of protein X4 of SARS-CoV Urbani [1]: 0.4
- Binding of serum 2 to looped/cyclic peptides of protein X4 of SARS-CoV Urbani [1]: 0.6
- Binding of serum 6 to linear peptides of protein X4 of SARS-CoV Urbani [1]: 0.7
- Binding of serum 6 to looped/cyclic peptides of protein X4 of SARS-CoV Urbani [1]: 0.7
- Binding of serum 37 to linear peptides of protein X4 of SARS-CoV Urbani [1]: 0.7
- Binding of serum 37 to looped/cyclic peptides of protein X4 of SARS-CoV Urbani [1]: 0.8
- Binding of serum 62 to linear peptides of protein X4 of SARS-CoV Urbani [1]: 0.8
- Binding of serum 62 to looped/cyclic peptides of protein X4 of SARS-CoV Urbani [1]: 0.7
- Binding of serum London to linear peptides of protein X4 of SARS-CoV Urbani [1]: 0.8
- Binding of serum London to looped/cyclic peptides of protein X4 of SARS-CoV Urbani [1]: 0.3
- Binding of serum SARS-green to linear peptides of protein X4 of SARS-CoV Urbani [1]: 0.6
- Binding of serum SARS-green to looped/cyclic peptides of protein X4 of SARS-CoV Urbani [1]: 0.5
- Binding of serum SARS-yellow to linear peptides of protein X4 of SARS-CoV Urbani [1]: 0.1
- Binding of serum SARS-yellow to looped/cyclic peptides of protein X4 of SARS-CoV Urbani [1]: 0.4
- Binding of Control Serum Blood-Bank to Looped peptides [2]: 0.9
- Binding of Control serum Blood-bank to linear peptides [2]: 0.8
- Binding of Control serum LUMC to linear peptides [2]: 0.7
- Binding of Control serum LUMC to looped peptides [2]: 0.8
- Rabbit serum linear peptides [3]: 0.4
- Rabbit serum looped peptides [3]: 0.3
